4 compounds from US20230165853A1, “METHOD FOR TREATING CHRONIC KIDNEY DISEASES” (ENYO PHARMA, priority 2021, published 2023) can be followed below.

Values joined by “and” are separate entries in the source; they are usually repeats but may differ in a detail not shown here. Equal entries are not always repeated. “Also recorded” adds a separate entry of the source. Marks after values point to notes of the source that are not given here.

For series [1], the system named is Nx mice. In words: Subtotal nephrectomy (Nx) mouse model of CKD, curative study, interstitial fibrosis by PSR (Example 2). In kind it is in vivo. The settings on record: initiated 5 weeks after Nx. An excerpt:
Analysis has been focused on an experimental model of CKD, i.e. the subtotal nephrectomy (Nx). In this model, a “curative study” was investigated, i.e. treatments have been initiated 5 weeks after Nx, when lesions are already developed.
54 nine-week old FVB female mice have been investigated, of which 6 have been submitted to sham operation (controls) and 48 to subtotal nephrectomy (Nx), which consist in the excision of the right kidney and the two poles of the left kidney to reach 75% reduction of total renal mass. Surgery was performed under xylazine (Rompun 2%; Bayer, Leverkusen, France) (6 μg/g of body weight) and ketamine (Clorketam 1000; Vetoquinol SA, Lirre, France) (120 μg/g of body weight) anesthesia. […]
Kidneys were fixed in 4% paraformaldehyde, paraffin embedded, and 4-μm sections were stained with picrosirius red (PSR). […] All sections were evaluated by a pathologist who was blinded to the treatment groups.
(§1) Staining of all kidney samples with picrosirius red (PSR) was performed, and red intensity above a defined threshold was defined as fibrosis. For interstitial fibrosis, at least 10 to 15 random selected fields (magnification ×200) across the corticomedullary junction were analyzed per each kidney section, and the results were expressed as percentages of the total area of the selected fields.

The next series deals with NASH patients. In words: Randomized, double-blind, placebo-controlled Livify NASH trial (Phase 2a). The format is in vivo, human. The settings on record: for ALT, absolute change (IU/L) / Alpha-2-Macroglobulin, absolute change (mg/dL) / Body Weight, absolute change (kg) / Change Relative LFC, % / GGT, absolute change (IU/L) / Waist-to-Hip Ratio, absolute change / cT1, absolute change (msec) / eGFR, absolute change (mL/min/1.73 m^2) / Change Absolute LFC, %: change from baseline to W12, mean (SD); for Change Absolute LFC, %: MRI-PDFF. How it is done: Vonafexor has anti-fibrotic effects in NASH and Chronic Kidney Disease (CKD) models. Up to 64% of NASH patients have decreased estimated glomerular filtration rate (eGFR <90 mL/min/1.73 m^2) which can evolve into CKD. […] 96 patients were randomized 1:1:1 to daily oral Placebo (PBO, n=32) or VONA (Vonafexor) 100 mg (n=31) or 200 mg (n=33) for 12 weeks (W12). Inclusion criteria required phenotypic stage 2 or 3 fibrosis NASH with an absolute liver fat content (LFC by MRI-PDFF) ≥10% and liver stiffness by transient elastography [LSTE]≥8.5 kPa or previous biopsy-proven NASH. Randomization was stratified by diabetes and LFC.

Series [2] concerns Nx mice. The series is described as follows: Subtotal nephrectomy (Nx) mouse model of CKD, curative study, renal histopathology (Example 1). The format is in vivo.
Source text: (§2) Analysis has been focused on an experimental model of CKD, i.e. the subtotal nephrectomy (Nx). In this model, a “curative study” was investigated, i.e. treatments have been initiated 5 weeks after Nx, when lesions are already developed. 42 nine-week old FVB female mice have been investigated, of which 6 have been submitted to sham operation (controls) and 36 to subtotal nephrectomy (Nx), which consist in the excision of the right kidney and the two poles of the left kidney to reach 75% reduction of total renal mass. Surgery was performed under xylazine (Rompun 2%; Bayer, Leverkusen, France) (6 μg/g of body weight) and ketamine (Clorketam 1000; Vetoquinol SA, Lirre, France) (120 μg/g of body weight) anesthesia.
After 5 weeks, mice have been divided into 4 groups: • Sham mice treated with the vehicle (n=6) • Nx mice treated with the vehicle (n=10) • Nx mice treated with dEF2572 FXR agonist (4-bromo-5-[4-(2,6-dichloro-benzenesulfonyl)-piperazin-1-yl]-benzofuran-2-carboxylic acid) at 100 mg/Kg/day (n=11) • Nx mice treated with Nidufexor (LMB763) FXR agonist at 30 mg/Kg/day (n=10)
Compounds have been administered once a day (QD) per oral gavage.
Mice have been sacrificed 3 weeks later. Blood has been collected just before sacrifice. At sacrifice, kidneys have been harvested for morphological and mRNA analyses.
Kidneys were fixed in 4% paraformaldehyde, paraffin embedded, and 4-μm sections were stained with Periodic acid-Schiff (PAS), Masson's trichrome, Hematoxylin and eosin, and picrosirius red (PSR). Images were acquired using a Nikon Digital Camera Dx/m/1200. All sections were evaluated by a pathologist who was blinded to the treatment groups.
The degree of glomerular lesions was evaluated on Periodic acid-Schiff (PAS) staining using a semi-quantitative score methodology. Briefly, 40-60 glomeruli per mouse were scored at a magnification of ×400, using the following scoring system: 0=no lesion, 1=mild sclerosis, interesting 10-25% of the glomerulus, 2=moderate sclerosis, interesting 25%-50% of the glomerulus, 3=severe sclerosis interesting 50%-75% of the glomerulus, and 4=global sclerosis interesting >75% of the glomerulus. The results were expressed as the mean of the scores of 40-60 glomeruli per mouse.
as §1, with “The degree of tubular dilations was automatically quantified on PAS staining using Image J/Fiji software, version 2.1.0. The extent of interstitial fibrosis was also quantified using Image J/Fiji software. Staining” for “Staining”, “performed simultaneously,” for “performed,”, “For tubular dilations and” for “For”

The subject of series [3] is FXR target genes (OSTA and OSTB). In words: Renal OSTA and OSTB mRNA levels by quantitative RT-PCR in Nx mice (Example 1). In kind it is in vivo, mouse. The settings on record: Nx mice kidneys. How it is done:
Mice were subjected to a subtotal nephrectomy (Nx). Treatments were initiated 5 weeks after Nx for a duration of 3 weeks. Kidneys were collected at sacrifice, and OSTA and OSTB mRNA levels were assessed by quantitative RT-PCR. p-values are indicated on the graphs.
as §2
After 5 weeks, mice have been divided into 4 groups: • Sham mice treated with the vehicle (n=6) • Nx mice treated with the vehicle (n=10) • Nx mice treated with dEF2572 FXR agonist (4-bromo-5-[4-(2,6-dichloro-benzenesulfonyl)-piperazin-1-yl]-benzofuran-2-carboxylic acid) at 100 mg/Kg/day (n=11) • Nx mice treated with Nidufexor (LMB763) FXR agonist at 30 mg/Kg/day (n=10) […]

The mark [4] stands for this setting: 30 mg/Kg/day QD oral gavage for 3 weeks, 30 mg/kg/day.
[5] abbreviates: 100 mg/Kg/day QD oral gavage for 3 weeks, 100 mg/kg/day.
[6] abbreviates: 100 mg/Kg/day QD oral gavage for 3 weeks, initiated 5 weeks after Nx.

With `CC[C@H]1[C@@H](O)[C@@H]2[C@H](CC[C@]3(C)[C@@H]([C@H](C)CCC(=O)O)CC[C@@H]23)[C@@]2(C)CC[C@@H](O)C[C@@H]12` [Obeticholic acid, reference compound], in the series on Nx mice [1] (setting [4]), the “renal interstitial fibrosis (picrosirius red staining positive areas)” value (“renal interstitial fibrosis” below) was “no significant effect”.

Take `O=C(O)c1cc2c(Cl)c(N3CCN(S(=O)(=O)c4c(Cl)cccc4Cl)CC3)ccc2o1` [Vonafexor, 4-chloro-5-[4-(2,6-dichloro-benzenesulfonyl)-piperazin-1-yl]-benzofuran-2-carboxylic acid]: the “renal interstitial fibrosis” value in the series on Nx mice [1] (setting [5]) is on record as “significantly decreases; also recorded: significantly better than OCA; also recorded: higher beneficial effects than Losartan”. Also, the “patients discontinued participation due to pruritus” value in the series on NASH patients (100 mg) was found to be 9%. The “liver fibro-inflammation marker cT1 (Liver Multiscan) reduced by” value with NASH patients (100 mg arm, p<0.001 vs PBO) was 81 ms. In the series with NASH patients (100 mg daily oral, W12), the “% Patients >88 msec absolute reduction (cT1)” value turned out to be 36% *, the “% Patients with >30% absolute reduction (LFC)” value is reported as 50% §, the “% Patients with >−17 IU/L reduction (ALT)” value amounted to 52% § and the “% Patients with any eGFR increase” value was 76% §. In the series with NASH patients (100 mg daily oral), the “ALT, absolute change (IU/L)” value was −19.3 (3.2) § IU/L; the “Alpha-2-Macroglobulin, absolute change (mg/dL)” value is reported as −25.9 (4.3) #, § mg/dL; the “Body Weight, absolute change (kg)” value is on record as −1.7 (0.5) #,§ kg; the “Change Relative LFC, %” value was −30.0 (4.7) #, § %. In the series with NASH patients (100 mg daily oral), the “GGT, absolute change (IU/L)” value was −40.6 (3.3) #, § IU/L; the “Waist-to-Hip Ratio, absolute change” value is listed as −0.02 (0.0) #, §; the “cT1, absolute change (msec)” value is given as −80.6 (15.4) #, § msec; the “eGFR, absolute change (mL/min/1.73 m^2)” value is recorded as “+6.0 (9.5) #, § mL/min/1.73 m^2”. Besides, the “Change Absolute LFC, %” value in the series with NASH patients (100 mg daily oral) was −6.3% and −6.3 (0.9) #, § %. The “non-drug related severe adverse events (number)” value in the series on NASH patients (100 mg group) is on record as 2. For the same compound, the “mean improvement in eGFR” value with NASH patients (100 mg or 200 mg treated subjects, 12 weeks) is “+5.6 mL/min/1.73 m^2”. In addition, the “patients with an eGFR increase >0.1 mL/min/1.73 m” value with NASH patients (100 mg treated subjects, 12-week treatment period) stood at 76%. In the series with NASH patients (200 mg daily oral, W12), the “% Patients >88 msec absolute reduction (cT1)” value came out at 36% *, the “% Patients with >5% absolute LFC reduction” value is 43% §, the “% Patients with >30% absolute reduction (LFC)” value turned out to be 39% § and the “% Patients with >−17 IU/L reduction (ALT)” value came out at 36%. The “% Patients with any eGFR increase” value in the series on NASH patients (200 mg daily oral, W12) was 65% §. In addition, in the series with NASH patients (200 mg daily oral), the “ALT, absolute change (IU/L)” value is on record as −10.8 (3.3) IU/L; the “Alpha-2-Macroglobulin, absolute change (mg/dL)” value is −18.4 (4.5) #, § mg/dL; the “Body Weight, absolute change (kg)” value is −2.5 (0.5) #, § kg; the “Change Relative LFC, %” value is −25.5 (4.6) #, § %. For the same compound, in the series on NASH patients (200 mg daily oral), the “GGT, absolute change (IU/L)” value is reported as −34.1 (3.3) #, § IU/L; the “Waist-to-Hip Ratio, absolute change” value is −0.01 (0.0); the “cT1, absolute change (msec)” value was −71.9 (14.2) #, § msec; the “eGFR, absolute change (mL/min/1.73 m^2)” value is “+2.5 (14.5) #, § mL/min/1.73 m^2”. In addition, the “Change Absolute LFC, %” value in the series on NASH patients (200 mg daily oral) was −5.5% and −5.5 (0.9) #, § %. Further, in the series with NASH patients (200 mg group), the “non-drug related severe adverse events (number)” value is reported as 2. Further, in the series on NASH patients (NASH patients, 100 mg or 200 mg daily for 12 weeks), the “overall safety and tolerability” value is “safe and well tolerated”. Further, in the series with NASH patients (NASH patients, 12 weeks), the “ALT increases Grade 2” value is “No ALT increases Grade 2” and the “increase in low density lipoprotein-cholesterol (LDL-C)” value came to 34%. Also, the “alpha-2-Macroglobulin (A2M) plasma levels” value in the series on NASH patients (NASH patients, reduction correlated with eGFR improvement (p<0.05)) was “reduced”. Also, in the series on NASH patients (VONA treatment (dose not stated), 12 weeks), the “mean reduction in ALT” value turned out to be 26%. In addition, the “patients achieving relative LFC reduction of >30%” value in the series on NASH patients (VONA-treated (dose not stated), W12) turned out to be 50%. Besides, in the series with NASH patients (VONA-treated subjects (dose not stated), p<0.001), the “mean reduction in GGT” value was determined as 42%.

Regarding `Cn1nc(C(=O)N(Cc2ccccc2)Cc2ccc(C(=O)O)cc2)c2c1-c1cc(Cl)ccc1OC2` [Nidufexor], the interstitial fibrosis entry in the series on Nx mice [2] (30 mg/Kg/day QD oral gavage for 3 weeks (FIG. 1)) is given as “no significant effect”. Besides, the “beneficial effects on the kidneys (interstitial fibrosis, tubular dilatation, glomerular lesions)” value in the series on Nx mice [2] (30 mg/Kg/day QD oral gavage for 3 weeks, initiated 5 weeks after Nx) was “not observed”. Also, in series [3] (setting [4]), the “renal expression of FXR target genes OSTA and OSTB (mRNA)” value is reported as “strong renal FXR target engagement; also recorded: more powerful FXR agonist than the identified compounds; also recorded: significantly increase”.

In the case of `O=C(O)c1cc2c(Br)c(N3CCN(S(=O)(=O)c4c(Cl)cccc4Cl)CC3)ccc2o1` [dEF2572, 4-bromo-5-[4-(2,6-dichloro-benzenesulfonyl)-piperazin-1-yl]-benzofuran-2-carboxylic acid], in the series on Nx mice [2] (setting [6]), the “renal glomerular lesions (semi-quantitative score)” value is reported as “significantly decreases”, the “renal interstitial fibrosis” value is reported as “significantly decreases” and the “renal tubular dilatation (PAS staining)” value is on record as “significantly decreases”. In addition, the “renal expression of FXR target genes OSTA and OSTB (mRNA)” value in series [3] (setting [5]) was “strong renal FXR target engagement; also recorded: significantly increase”.
